As a reminder, the Ki is a measure of affinity in units of concentration, obtained from inhibition or displacement. A low value points to tighter binding.

Where only a bound is given, the exact number is not on record here.

Ki data for 20 molecules are collected here from patent US20210047304A1, “Bromodomain Inhibitors” (AbbVie Inc., priority 2016, published 2021).

The assay addresses BRD4 (BDI_K57-E168) (Homo sapiens, UniProt O60885). As to the kind of experiment: TR-FRET bromodomain binding assay, BRD4 BDI. The protocol: A time-resolved fluorescence resonance energy transfer (TR-FRET) assay was used to determine the affinities of compounds of the Examples listed in Table 1 for each bromodomain of BRD4. […] An Alexa647-labeled BET-inhibitor was used as the fluorescent probe in the assay.
Compound dilution series were prepared in DMSO via an approximately 3-fold serial dilution. Compound dilutions were added directly into white, low-volume assay plates (Perkin Elmer Proxiplate 384 Plus #6008280) using a Labcyte Echo in conjunction with Labcyte Access and Thermo Multidrop CombinL robotics. Compounds were then suspended in eight microliters (μL) of assay buffer (20 mM Sodium Phosphate, pH 6.0, 50 mM NaCl, 1 mM Ethylenediaminetetraacetic acid disodium salt dihydrate, 0.01% Triton X-100, 1 mM DL-Dithiothreitol) containing His-tagged bromodomain, Europium-conjugated anti-His antibody (Invitrogen PV5596) and Alexa-647-conjugated probe.
After a one-hour equilibration at room temperature, TR-FRET ratios were determined using an Envision multilabel plate reader (Ex 340, Em 495/520).
TR-FRET data were normalized to the means of 24 no-compound controls (“high”) and 8 controls containing 1 μM un-labeled probe (“low”). Percent inhibition was plotted as a function of compound concentration and the data were fit with the 4 parameter logistic equation to obtain IC50s. Inhibition constants (Ki) were calculated from the IC50s, probe Kd and probe concentration.
Compound dilution series for Compounds A-E were prepared in DMSO via an approximately 3-fold serial dilution from 0.47 mM to 7.8 nM.
Compound dilutions were added directly into white, low-volume assay plates (Perkin Elmer Proxiplate 384 Plus #6008280) using a Labcyte Echo in conjunction with Labcyte Access and Thermo Multidrop CombinL robotics. Compounds were then suspended in eight microliters (μL) of assay buffer (20 mM Sodium Phosphate, pH 6.0, 50 mM NaCl, 1 mM Ethylenediaminetetraacetic acid disodium salt dihydrate, 0.01% Triton X-100, 1 mM DL-Dithiothreitol) containing His-tagged bromodomain, Europium-conjugated anti-His antibody (Invitrogen PV5596) and Alexa-647-conjugated probe.
TR-FRET data were normalized to the means of 24 no-compound controls (“high”) and 8 controls containing 1 μM un-labeled probe (“low”). Percent inhibition was plotted as a function of compound concentration and the data were fit with the 4 parameter logistic equation to obtain IC50s. Inhibition constants (Ki) were calculated from the IC50s, probe Kd and probe concentration. Typical Z′ values were between 0.65 and 0.75. The minimum significant ratio was determined to evaluate assay reproducibility (Eastwood et al., (2006) J Biomol Screen, 11: 253-261). The MSR was determined to be 2.03 for BDI and 1.93 for BDII, and a moving MSR (last six run MSR overtime) for both BDI and BDII was typically <3.
In the case of `Cc1cc(F)cc(C)c1Oc1ccc(C(C)(C)O)cc1-c1cn(C)c(=O)cc1O[C@H]1CC[C@H](N2CCCNC2=O)CC1` [Example 31, 1-[trans-4-({5-[2-(4-fluoro-2,6-dimethylphenoxy)-5-(2-hydroxypropan-2-yl)phenyl]-1-methyl-2-oxo-1,2-dihydropyridin-4-yl}oxy)cyclohexyl]tetrahydropyrimidin-2(1H)-one], the Ki was 2.41 µM.
On to `CC(=O)NC1(C)CCC(Oc2cc(=O)n(C)cc2-c2cc(C(C)(C)O)ccc2Oc2c(C)cc(F)cc2C)CC1` (stereo not drawn) [Example 32, N-[trans-4-({5-[2-(4-fluoro-2,6-dimethylphenoxy)-5-(2-hydroxypropan-2-yl)phenyl]-1-methyl-2-oxo-1,2-dihydropyridin-4-yl}oxy)-1-methylcyclohexyl]acetamide], for which the affinity corresponds to a Ki of 1.01 µM.
`CCc1c(-c2cc(C(C)(C)O)ccc2Oc2c(C)cc(F)cc2C)c(O[C@H]2CC[C@H](N3CCCC3=O)CC2)cc(=O)n1C` [Example 33, 6-ethyl-5-[2-(4-fluoro-2,6-dimethylphenoxy)-5-(2-hydroxypropan-2-yl)phenyl]-1-methyl-4-{[trans-4-(2-oxopyrrolidin-1-yl)cyclohexyl]oxy}pyridin-2(1H)-one] gave an inhibition constant Ki greater than 13 µM.
`Cc1cc(F)cc(C)c1Oc1ccc(C(C)(C)O)cc1-c1cn(C)c(=O)cc1OC1CCC(C)(N2CCCC2=O)CC1` (stereo not drawn) [Example 34, 5-[2-(4-fluoro-2,6-dimethylphenoxy)-5-(2-hydroxypropan-2-yl)phenyl]-1-methyl-4-{[trans-4-methyl-4-(2-oxopyrrolidin-1-yl)cyclohexyl]oxy}pyridin-2(1H)-one] gave a Ki of 0.89 µM.
`Cc1cc(F)cc(C)c1Oc1ccc(C(C)(C)O)cc1-c1cn(C)c(=O)cc1O[C@H]1CC[C@H](N2CCNC2=O)CC1` [Example 35, 5-[2-(4-fluoro-2,6-dimethylphenoxy)-5-(2-hydroxypropan-2-yl)phenyl]-1-methyl-4-{[trans-4-(2-oxoimidazolidin-1-yl)cyclohexyl]oxy}pyridin-2(1H)-one] gave a Ki of 1.81 µM.
In the case of `C=CCCCC(=O)N[C@H]1CC[C@H](Oc2cc(=O)n(C)cc2-c2cc(C(C)(C)O)ccc2Oc2c(C)cc(F)cc2C)CC1` [Example 36, N-[trans-4-({5-[2-(4-fluoro-2,6-dimethylphenoxy)-5-(2-hydroxypropan-2-yl)phenyl]-1-methyl-2-oxo-1,2-dihydropyridin-4-yl}oxy)cyclohexyl]hex-5-enamide], the Ki turned out to be 5.79 µM.
`Cc1cc(F)cc(C)c1Oc1ccc(C(C)(C)O)cc1-c1cn(C)c(=O)cc1O[C@H]1CC[C@H](N2CCCCCC2=O)CC1` [Example 37, 1-[trans-4-({5-[2-(4-fluoro-2,6-dimethylphenoxy)-5-(2-hydroxypropan-2-yl)phenyl]-1-methyl-2-oxo-1,2-dihydropyridin-4-yl}oxy)cyclohexyl]azepan-2-one] had a Ki of 2.51 µM.
Consider `Cc1cc(F)cc(C)c1Oc1ccc(C(C)(C)O)cc1-c1cn(C)c(=O)cc1O[C@H]1CC[C@H](N2CCOC2=O)CC1` [Example 38, 5-[2-(4-fluoro-2,6-dimethylphenoxy)-5-(2-hydroxypropan-2-yl)phenyl]-1-methyl-4-{[trans-4-(2-oxo-1,3-oxazolidin-3-yl)cyclohexyl]oxy}pyridin-2(1H)-one], for which the Ki turned out to be 2.5 µM.
Turning to `Cc1cc(F)cc(C)c1Oc1ccc(C(C)(C)O)cc1-c1cn(C)c(=O)cc1O[C@H]1CC[C@H](N2CCCOC2=O)CC1` [Example 39, 3-[trans-4-({5-[2-(4-fluoro-2,6-dimethylphenoxy)-5-(2-hydroxypropan-2-yl)phenyl]-1-methyl-2-oxo-1,2-dihydropyridin-4-yl}oxy)cyclohexyl]-1,3-oxazinan-2-one], the Ki came to 2.25 µM.
Molecule `Cc1cc(F)cc(C)c1Oc1ccc(C(C)(C)O)cc1-c1cn(C)c(=O)cc1O[C@H]1CC[C@H](N2CCOCC2=O)CC1` [Example 40, 4-[trans-4-({5-[2-(4-fluoro-2,6-dimethylphenoxy)-5-(2-hydroxypropan-2-yl)phenyl]-1-methyl-2-oxo-1,2-dihydropyridin-4-yl}oxy)cyclohexyl]morpholin-3-one] came in with a Ki of 2.03 µM.
In the case of `Cc1cc(F)cc(C)c1Oc1ccc(C(C)(C)O)cc1-c1cn(C)c(=O)cc1O[C@H]1CC[C@H](N2CCCN(C)C2=O)CC1` [Example 41, 1-[trans-4-({5-[2-(4-fluoro-2,6-dimethylphenoxy)-5-(2-hydroxypropan-2-yl)phenyl]-1-methyl-2-oxo-1,2-dihydropyridin-4-yl}oxy)cyclohexyl]-3-methyltetrahydropyrimidin-2(1H)-one], the affinity, expressed as Ki, was 2.48 µM.
Next, `Cc1cc(F)cc(C)c1Oc1ccc(C(C)(C)O)cc1-c1cn(C)c(=O)cc1O[C@H]1CC[C@H](N2C(=O)c3ccccc3C2=O)CC1` [Example 43, 2-[trans-4-({5-[2-(4-fluoro-2,6-dimethylphenoxy)-5-(2-hydroxypropan-2-yl)phenyl]-1-methyl-2-oxo-1,2-dihydropyridin-4-yl}oxy)cyclohexyl]-1H-isoindole-1,3(2H)-dione]: greater than 13 µM; `Cc1cc(F)cc(C)c1Oc1ccc(C(C)(C)O)cc1-c1cn(C)c(=O)cc1O[C@H]1CC[C@H](N2C(=O)CCC2=O)CC1` [Example 44, 1-[trans-4-({5-[2-(4-fluoro-2,6-dimethylphenoxy)-5-(2-hydroxypropan-2-yl)phenyl]-1-methyl-2-oxo-1,2-dihydropyridin-4-yl}oxy)cyclohexyl]pyrrolidine-2,5-dione]: 3.38 µM; `Cc1cc(F)cc(C)c1Oc1ccc(C(C)(C)O)cc1-c1cn(C)c(=O)cc1O[C@H]1CC[C@H](NC(=O)c2ccccc2C(=O)O)CC1` [Example 45, 2-{[trans-4-({5-[2-(4-fluoro-2,6-dimethylphenoxy)-5-(2-hydroxypropan-2-yl)phenyl]-1-methyl-2-oxo-1,2-dihydropyridin-4-yl}oxy)cyclohexyl]carbamoyl}benzoic acid]: 4.17 µM.
Molecule `Cc1cc(F)cc(C)c1Oc1ccc(C(C)(C)O)cc1-c1cn(C)c(=O)cc1O[C@H]1CC[C@H](NS(C)(=O)=O)CC1` [Example 46, N-[trans-4-({5-[2-(4-fluoro-2,6-dimethylphenoxy)-5-(2-hydroxypropan-2-yl)phenyl]-1-methyl-2-oxo-1,2-dihydropyridin-4-yl}oxy)cyclohexyl]methanesulfonamide] had a Ki of 5.45 µM.
Next, `Cc1cc(F)cc(C)c1Oc1ccc(C(C)(C)O)cc1-c1cn(C)c(=O)cc1O[C@H]1CC[C@H](NC(=O)C(C)(C)CCO)CC1` [Example 47, N-[trans-4-({5-[2-(4-fluoro-2,6-dimethylphenoxy)-5-(2-hydroxypropan-2-yl)phenyl]-1-methyl-2-oxo-1,2-dihydropyridin-4-yl}oxy)cyclohexyl]-4-hydroxy-2,2-dimethylbutanamide]: 4.02 µM; `Cc1cc(F)cc(C)c1Oc1ccc(C(C)(C)O)cc1-c1cn(C)c(=O)cc1O[C@H]1CC[C@H](N2CCC(C)(C)C2=O)CC1` [Example 48, 4-{[trans-4-(3,3-dimethyl-2-oxopyrrolidin-1-yl)cyclohexyl]oxy}-5-[2-(4-fluoro-2,6-dimethylphenoxy)-5-(2-hydroxypropan-2-yl)phenyl]-1-methylpyridin-2(1H)-one]: 1.79 µM.
Next, `Cc1cc(F)cc(C)c1Oc1ccc(C(C)(C)O)cc1-c1cn(C)c(=O)cc1O[C@H]1CC[C@H](NC(=O)CCO)CC1` [Example 49, N-[trans-4-({5-[2-(4-fluoro-2,6-dimethylphenoxy)-5-(2-hydroxypropan-2-yl)phenyl]-1-methyl-2-oxo-1,2-dihydropyridin-4-yl}oxy)cyclohexyl]-3-hydroxypropanamide]: 2.53 µM; `Cc1cc(F)cc(C)c1Oc1ccc(C(C)(C)O)cc1-c1cn(C)c(=O)cc1O[C@H]1CC[C@H](NC(=O)C2CC2)CC1` [Example 50, N-[trans-4-({5-[2-(4-fluoro-2,6-dimethylphenoxy)-5-(2-hydroxypropan-2-yl)phenyl]-1-methyl-2-oxo-1,2-dihydropyridin-4-yl}oxy)cyclohexyl]cyclopropanecarboxamide]: 2.83 µM; `Cc1cc(F)cc(C)c1Oc1ccc(C(C)(C)O)cc1-c1cn(C)c(=O)cc1O[C@H]1CC[C@H](NC(=O)C2(C)CC2)CC1` [Example 51, N-[trans-4-({5-[2-(4-fluoro-2,6-dimethylphenoxy)-5-(2-hydroxypropan-2-yl)phenyl]-1-methyl-2-oxo-1,2-dihydropyridin-4-yl}oxy)cyclohexyl]-1-methylcyclopropane-1-carboxamide]: greater than 13 µM.
